According to patent US9101613B2, “Methods for treating neurological disease” (Neurim Pharmaceuticals (1991) Ltd., priority 2006, dated 2015):

B1: BDNF: Brain-derived neurotrophic factor, growth factor used as reference compound (protein, UniProt P23560 19-247, looked up)
Neurotrophic factor BDNF …: APMKEANIRGQGGLAYPGVRTHGTLESVNGPKAGSRGLTSLADTFEHVIEELLDEDQKVRPNEENNKDADLYTSRVMLSSQVPLEPPLLFLLEEYKNYLDAANMSMRVRRHSDPARRGELSVCDSISEWVTAADKKTAVDMSGGTVTVLEKVPVSKGQLKQYFYETKCNPMGYTKEGCRGIDKRHWNSQCRTTQSYVRALTMDSKKRIGWRFIRIDTSCVCTLTIKRGR

Experiments:
mice = assay: Rotarod assay, interaction with diazepam;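 further: Success means running more than 120 min on the rod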; type: in vivo; settings: Diazepam 1.5 mg/kg p.o. + Vehicle i.p.; 15 rpm
Procedure: The incidences of animals running more than […] on the rotating rod were noted, and significances were calculated by non-parametric x^2 test. 8 mice/group were used.
The rotarod apparatus is divided into five test zones, so that up to five mice may be tested at the same time. The rod has been specially machined to provide a suitable grip for the animal. The diameter of the rod is 3.5 cm. The rotation speed was 15 rpm. When the animal falls off the rotating rod, it presses a button to record automatically the time spent on the rod. On the day before the experiment the mice were trained to run on the rod rotating with 15 rpm. Diazepam was administered orally 60 min before the rotarod assay, test substances were administered intraperitoneally 15 min before testing.

MT-1 receptor = target: T1, MT-1 receptor (Homo sapiens, UniProt P48039); assay: 125I-melatonin binding in membranes of CHP-K1 cells, MT-1; settings: 0.05 nM 125I-melatonin; for IC50 / Ki: 25° C., 3 hours; for IC50: read-out: MT-1 receptor binding IC50; for Ki: read-out: MT-1 receptor binding KI; for inhibition at 10 µM: read-out: MT-1 receptor binding % inhibition by 10 μM
T1 construct: expressed in transfected cells; host or cells: CHP-K1 (Chinese hamster ovary) cells (so in the source)
Procedure: (§1) Aliquots of suspended membranes of human recombinant CHP-K1 (Chinese hamster ovary) cells stably expressing human melatonin-1 or melatonin-2 (MT-1 or MT-2) receptors or of hamster brain (MT-3) were incubated at 25° C. with 0.05 nM ^125I-melatonin in buffer (25 mM HEPES, pH 7.4, 5 mM MgCl2, 1 mM CaCl2, 0.5% BSA) or with 0.1 nM for MT-3 alone or in the presence of 1 nM, 10 nM, 0.1 μM, 1 μM and 10 μM of test substances N-[2-(5-methoxy-indol-3-yl)-ethyl]-commenamide, N-[2-(5-methoxy-indol-3-yl)-ethyl]-comanilamide, N-[2-(5-methoxy-indol-3-yl)-ethyl]-coumalylamide, N-[2-(5-methoxy-indol-3-yl)-ethyl]-2-methoxy-commenamide, N-[2-(5-methoxy-indol-3-yl)-ethyl]-chelidonamide, O-[2-(5-methoxy-indol-3-yl)-ethyl]-comenic ester, N-[2-(5-methoxy-indol-3-yl)-ethyl]-2-Pyrone-6-carboxamide and N-[2-(2-bromo-5-methoxy-indol-3-yl)-ethyl]-coumalylamide for 3 hours for MT-1, 4 hours for MT-2 and 30 min for MT-3. The binding reaction was terminated and the membranes were washed with 4 ml of ice-cold HEPES buffer by vacuum filtration. Membranes were then collected, and the filters containing the bound ^125I-melatonin were assayed for the amount of radioactivity in a […]. Non-specific binding was evaluated using a reaction with 1 μM 6-chloromelatonin (MT-1 and MT-2) or 30 μM melatonin (MT-3).

MT-2 receptor = target: T2, MT-2 receptor (Homo sapiens, UniProt P49286); assay: 125I-melatonin binding in membranes of CHP-K1 cells, MT-2; settings: 0.05 nM 125I-melatonin; for IC50 / Ki: 25° C., 4 hours; for IC50: read-out: MT-2 receptor binding IC50; for Ki: read-out: MT-2 receptor binding KI; for inhibition at 10 µM: read-out: MT-2 receptor binding % inhibition by 10 μM
T2 construct: expressed in transfected cells; host or cells: CHP-K1 (Chinese hamster ovary) cells (so in the source)
T2 sequence (P49286 1-362): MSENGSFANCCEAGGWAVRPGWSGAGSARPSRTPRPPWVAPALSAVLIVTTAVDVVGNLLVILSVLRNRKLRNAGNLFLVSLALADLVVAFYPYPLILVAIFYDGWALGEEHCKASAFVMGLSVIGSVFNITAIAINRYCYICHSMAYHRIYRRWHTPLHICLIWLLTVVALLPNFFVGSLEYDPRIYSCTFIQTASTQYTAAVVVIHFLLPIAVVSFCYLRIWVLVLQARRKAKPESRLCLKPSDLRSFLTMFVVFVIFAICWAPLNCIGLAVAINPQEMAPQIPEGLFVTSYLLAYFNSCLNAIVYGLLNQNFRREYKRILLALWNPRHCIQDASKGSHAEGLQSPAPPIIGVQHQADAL
Procedure: as §1

3T3-L1 adipocytes = assay: 2-[3H]-deoxy-d-glucose uptake in FFA-treated 3T3-L1 adipocyte model; type: cell-based
Procedure: Adipocytes were glucose-starved for 1 h in Hepes-salt buffer containing 2% FFA-free BSA. FFA (free fatty acids) were then added to the cells at the indicated concentrations (300 μM) for the indicated times (3 h). 10 min before the end of the FFA treatment, the cells were stimulated with insulin (20 nM)/melatonin (10 nM)/test compounds (10 nM) at 37° C. 2-[^3H]-deoxy-d-glucose at 1 μCi/mL and 0.1 mM unlabeled 2-deoxyglucose in KRP-HEPES buffer was added and cells were incubated for 10 min at room temperature. Non-specific glucose uptake was measured by parallel incubations in the presence of 10 μM cytochalasin B, which blocks transporter-mediated glucose uptake, and was subtracted from total uptake in each assay. Cells were then washed three times with ice-cold phosphate buffered saline (PBS) and solubilized in 1M NaOH for 20 minutes. The sample was then counted using a scintillation counter. 2-[^3H]-deoxy-d-glucose uptake was assayed in triplicates for each condition in at least 3 independent experiments. 2-[^3H]-deoxy-d-glucose uptake (counts per minute-cpm) are presented as mean+SE of triplicates in a representative experiment or results of three independent experiments. ANOVA test was used with significance of P<0.05 (Table 7).

CD1 mice = assay: Potentiation of hexobarbital-Na sleep time in mice; type: in vivo
Procedure: CD1 mice were divided randomly into groups of seven mice each. The mice in each group were administered intraperitoneally a dose of one of the following: 100 mg/kg of one of test substances O-[2-(5-methoxy-indol-3-yl)-ethyl]-comenic ester, N-[2-(5-methoxyindol-3-yl)-ethyl]-commenamide, N-[2-(5-methoxy-indol-3-yl)-ethyl]-coumalylamide, N-[2-(5-methoxy-indol-3-yl)-ethyl]-chelidonamide, N-[2-(5-methoxy-indol-3-yl)-ethyl]-comanilamide or N-[2-(5-methoxy-indol-3-yl)-ethyl]-2-methoxy-commenamide in saline (0.1 ml/10 g body weight), or saline alone. Fifteen minutes later the mice received a dose of 50 mg/kg of hexobarbital-Na intravenously. Sleep time was measured in each animal as the time from loss to recovery of the righting reflex.

[1] = tested on: rat primary cortical neurons; assay: Neurite outgrowth in rat primary cortical neurons; type: cell-based; settings: 5 days of culture
Procedure: The aim of this study was to assess the potential effect of N-[2-(5-methoxy-indol-3-yl)-ethyl]-comanilamide (100 nM) after 5 days of culture on neurite outgrowth in rat primary cortical neurons. The study used three separate cultures (n=6 wells per condition); the mean value of the 3 cultures (+/−sem) was calculated.
Rat cortical neurons were cultured as described by Singer et al., 1999. Briefly pregnant female rats of 15 days gestation are killed by cervical dislocation (Rats Wistar; Janvier) and the fetuses removed from the uterus. The cortex are removed and placed in ice-cold medium of Leibovitz (L15; Invitrogen) containing 1% of Penicillin-Streptomycin (PS; Invitrogen) and 1% of bovine serum albumin (BSA; Sigma). Cortex are dissociated by trypsinisation for 20 min at 37° C. (Trypsin EDTA 1×; Invitrogen) diluted in PBS without calcium and magnesium. The reaction is stopped by the addition of Dulbecco's modified Eagle's medium (DMEM; Invitrogen) containing DNAase I grade II (0.1 mg/ml; Roche Diagnostic) and 10% of fetal calf serum (FCS; Invitrogen). Cells are then mechanically dissociated by 3 passages through a 10 ml pipette. Cells are then centrifuged at 180×g for 10 min at 10° C. The supernatant is discarded and the cells of pellet are re-suspended in a defined culture medium consisting of Neurobasal (Invitrogen) supplemented with B27 (2%; Invitrogen), L-glutamine (0.2 mM; Invitrogen) and 1% of PS solution with 10 ng/ml of Brain-derived neurotrophic factor (BDNF).
For the neurite outgrowth assay, the cells are seed with test compound A (at 100 nM) and reference compound (BDNF at 10 ng/ml used as reference control) on defined medium (Neurobasal supplemented with 2% of B27, 0.2 mM of L-glutamine and 1% of PS).
The cultures were done (a) without BDNF in order to analyse the neurotrophic effect of compounds alone and (b) with low BDNF concentration (0.5 ng/ml) in order to analyse the synergic neurotrophic effect of N-[2-(5-methoxy-indol-3-yl)-ethyl]-comanilamide with the growth factor.
After 5 days of culture in presence of N-[2-(5-methoxy-indol-3-yl)-ethyl]-comanilamide and reference, cells were fixed by a cool solution of ethanol (95%) and acetic acid (5%) for 10 min. After permeabilization with 0.1% of saponin, cells were incubated with monoclonal antibody anti microtubule associated protein 2 (MAP-2; Sigma). This antibody stains specifically cell bodies and neurite of neurons. […] Nuclei of neurons were labeled by a fluorescent marker (Hoechst solution, SIGMA). Per well, 20 pictures were taken using InCell Analyzer™ 1000 (GE Healthcare) with 20× magnification. All images were done in the same conditions. Analysis of the neuritis networks and neuron were assessed using Developer software (GE Healthcare). […]

T1 sequence (P48039 whole entry): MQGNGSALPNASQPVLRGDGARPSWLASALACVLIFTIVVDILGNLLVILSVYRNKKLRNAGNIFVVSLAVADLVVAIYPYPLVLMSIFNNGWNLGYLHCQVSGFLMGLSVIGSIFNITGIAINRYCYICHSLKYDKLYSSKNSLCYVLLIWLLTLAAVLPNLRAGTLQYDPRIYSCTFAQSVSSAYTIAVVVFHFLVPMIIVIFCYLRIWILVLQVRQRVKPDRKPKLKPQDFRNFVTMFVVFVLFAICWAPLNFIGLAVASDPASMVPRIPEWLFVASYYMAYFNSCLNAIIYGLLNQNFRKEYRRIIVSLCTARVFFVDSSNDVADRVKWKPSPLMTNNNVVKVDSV

Molecule	IC50 (MT-1 receptor)	Ki (MT-1 receptor)	inhibition at 10 µM (MT-1 receptor)	IC50 (MT-2 receptor)	Ki (MT-2 receptor)	inhibition at 10 µM (MT-2 receptor)	further results
CN1C(=O)CN=C(c2ccccc2)c2cc(Cl)ccc21 [Diazepam, reference compound]	–	–	–	–	–	–	Incidence of performance (rotarod) (mice): 6/8
COc1ccc2[nH]c(Br)c(CCNC(=O)c3ccc(=O)oc3)c2c1 [N-[2-(2-bromo-5-methoxy-indol-3-yl)-ethyl]-coumalylamide]	2.4 µM	1.25 µM	76%	0.85 µM	0.441 µM	89%	–
COc1ccc2[nH]cc(CCNC(=O)c3cccc(=O)o3)c2c1 [N-[2-(5-methoxy-indol-3-yl)-ethyl]-2-Pyrone-6-carboxamide]	10.1 µM	5.24 µM	50%	5.06 µM	2.63 µM	65%	–
COc1ccc2[nH]cc(CCOC(=O)c3cc(=O)c(O)co3)c2c1 [O-[2-(5-methoxy-indole-3-yl)-ethyl]-comenic ester]	–	–	47%	1.64 µM	0.85 µM	78%	2-[3H]-deoxy-d-glucose uptake (cpm) (3T3-L1 adipocytes; Insulin 20 nM + FFA 300 μM (3 h) + substance 10 nM): 1787 cpm; effect on hexobarbital-Na narcosis time (CD1 mice; 100 mg/kg i.p.): significantly increased the hexobarbital-Na narcosis time; Changes (%) vs. Vehicle (sleep time) (CD1 mice; 100 mg/kg i.p. 15 min before 50 mg/kg hexobarbital-Na i.v.): +108%; Mean Sleep Time-Treatment (min) ± SE (CD1 mice; 100 mg/kg i.p. 15 min before 50 mg/kg hexobarbital-Na i.v., loss to recovery of righting reflex): 15.15 ± 6.02 min
Insulin	–	–	–	–	–	–	2-[3H]-deoxy-d-glucose uptake (cpm) (3T3-L1 adipocytes; Insulin (20 nM) alone, no FFA): 1839 cpm
B1	–	–	–	–	–	–	neurite length, % of control ([1]; BDNF 0.5 ng/ml alone): ~125 % of control; neurite length, % of control ([1]; BDNF 10 ng/ml reference): ~153 % of control
